Experimental data taken from patent publication US11766649B2, “Coating method” (ASTON PARTICLE TECHNOLOGIES LIMITED, priority 2017, dated 2023).

Legend:
Type in all cases: physicochemical
[1] = USP II basket dissolution of piroxicam/PVP powders in 0.1N hydrochloric acid; conditions: 20 mg dose, 37° C., 50 rpm, end of the 4 h interval, FIG. 8
Description: (§1) The dissolution rate was analysed using standard USP II dissolution apparatus using the basket assembly dissolution vessels. Standard 20 mg dose powders were investigated to mimic a patient dose, with dissolution conditions maintained at 37° C. and the basket apparatus rotated at 50 rpm in 0.1N hydrochloric acid. Powders were placed in the basket and submerged in to the dissolution apparatus and ran over 4 h. Samples were taken at predetermined time intervals, with each sample volume replaced with the same amount of fresh dissolution media to maintain sink conditions. The samples were filtered appropriately and analysed for drug content using HPLC apparatus at each of the time points. All results were taken in triplicate, and are represented in FIG. 8.

[2] = USP II basket dissolution of flucloxacillin sodium/polymer powders in pH 6.8 phosphate buffer; conditions: 250 mg dose, 37° C., 50 rpm, 60 mins, FIG. 13
Description: as §1, with “250” for “20”, “pH 6.8 phosphate buffer.” for “0.1N hydrochloric acid.”, “60 mins.” for “4 h.”, “and are represented in FIG. 8.” left out

[3] = USP II basket dissolution of carbamazepine/PVP powders in distilled water; conditions: 200 mg dose, 37° C., 50 rpm, over the 4 h time period, FIG. 7
Description: as §1, with “200” for “20”, “distilled water.” for “0.1N hydrochloric acid.”, “7.” for “8.”

[4] = Dissolution of carbamazepine dry coated with micronized sodium lauryl sulphate (FIG. 10)
[5] = USP II basket dissolution of phenytoin/PVP powders in distilled water; conditions: 200 mg dose, 37° C., 50 rpm, 4 h, FIG. 9
Description: as §1, with “200” for “20”, “distilled water.” for “0.1N hydrochloric acid.”, “9.” for “8.”

Work on `CN1C(C(=O)Nc2ccccn2)=C(O)c2ccccc2S1(=O)=O` [control piroxicam, piroxicam] yielded a drug release [1] of 29.7%.
For `Cc1onc(-c2c(F)cccc2Cl)c1C(=O)N[C@@H]1C(=O)N2[C@@H]1SC(C)(C)[C@@H]2C(=O)O` [flucloxacillin sodium], the “release of flucloxacillin sodium” value [2] was “full release within a minute”.
For `NC(=O)N1c2ccccc2C=Cc2ccccc21` [micronized carbamazepine, carbamazepine], the drug release [3] was “very poor release”.
In the case of `NC(=O)N1c2ccccc2C=Cc2ccccc21` [off the shelf carbamazepine (CBZ), carbamazepine], the drug release [4] was “around 38%”.
`O=C1NC(=O)C(c2ccccc2)(c2ccccc2)N1` [phenytoin alone, phenytoin] showed a release [5] of 4.7%.
